System: Male NSA mice
Assay: In vivo determination of behavioral effects (motor activity / MK-801 hyperactivity), minimum effective dose
Conditions: p.o., lowest dose significantly different from vehicle control (distance traveled)
Experimental: Animals and Apparatus. Male NSA mice (Harlan; San Deigo, Calif.) were used as subjects. Mice weighed 20-30 g. Animals were housed 8/cage in the One Cage system (One Cage; Lab Products, Inc., Seaford, Del.) with bedding (⅛ inch Bed “O” Cob; Harlan Teklad, Madison, Wis.) in a room with controlled temperature 22±3° C. and a 12 hour light:dark cycle (lights on 6 am). Water and standard rodent chow (Harlan Teklad) were continuously available in the home cage. For testing, plastic locomotor activity cages (20×20×30 cm; AccuScan Instruments, Columbus, Ohio) were equipped with photocell beams for monitoring horizontal activity. Data were collected using Versamax computer software (AccuScan Instruments).
For determination of spontaneous activity, test compounds were administered alone (s.c. 10 min or p.o. 30 min before the session). For hyperactivity experiments, mice were injected with 0.3 mg/kg MK-801 i.p. 15 min presession (the peak dose for producing hyperactivity in an inverted-U dose-effect curve as determined in pilot experiments) in combination with vehicle or test compound. Motor activity data were collected during a 15 min session in a lit room. Mice had no prior exposure to the motor cages. Each dose or dose combination was tested in a separate group of mice (n=8).
Distance traveled (cm) was calculated and averaged across animals in a group. […]

CC(C)COc1ccc(CC(=O)N(Cc2ccc(F)cc2)C2CCN(CCCN3C(=O)OC[C@@H]3C(C)C)CC2)cc1.O=C(O)C(=O)O [117NLS01, N-(4-Fluorobenzyl)-2-(4-isobutoxyphenyl)-N-{1-[3-(4-(S)-isopropyl-2-oxo-oxazolidin-3-yl)propyl]piperidin-4-yl}acetamide]
MED in vivo po: 1 mg/kg

Reference: patent US7538222B2, “N-substituted piperidine derivatives as serotonin receptor agents” (ACADIA Pharmaceuticals, Inc., priority 2002, dated 2009)
